Experimental data: patent US7902191B2, “Histamine H3 receptor antagonists, preparation and therapeutic uses” (Eli Lilly and Company, priority 2004, dated 2011)

Tests used:
[1] = target: T1, H3R membranes (H3R8-expressing HEK293 cell line) (Homo sapiens, UniProt Q9Y5N1); test: [35S] GTP γ[S] binding assay, antagonist activity in the presence of agonist R(−)alpha methylhistamine; format: biochemical; details: results given below the [35S]GTPγS assay
T1 construct: expressed in transfected cells
Description: Membranes isolated as described in (Preparation of Histamine Receptor Subtype Membranes) were used in a [35S]GTPχS functional assay. Binding of [35S]GTPχS to membranes indicates agonist activity. Compounds of the invention of Formula I or II or III were tested for their ability to inhibit binding in the presence of agonists. Alternately, the same transfected cell lines were used for a cAMP assay wherein H3R agonists inhibited forskolin-activated synthesis of cAMP. Compounds of Formula I or II or III were tested for their ability to permit forskolin-stimulated cAMP synthesis in the presence of agonist.
cDNA for the human histamine 3 receptor was cloned and expressed as described in (A. Preparation H1R membranes), above. Transfected cells were selected using G418 ([…]), grown, and tested for histamine binding by the SPA described above. For total binding, cells were assayed in a SPA reaction described above containing 50 mM Tris-HCL (assay buffer), pH 7.6, 1 mg wheat germ agglutinin SPA beads (Amersham Pharmacia Biotech, #RPNQ0001), and 1 nM (3H)-n-alpha-methylhistamine (NEN, NET1027) (total volume per well=200 μl). Thioperimide was added to determine non-specific binding. […]
Antagonist activity of selected compounds was tested for inhibition of [35S] […] Plates were counted in Wallac Trilux 1450 Microbeta scintillation counter for 1 minute. […]

[2] = target: T2, H3R (human histamine 3 receptor) (Homo sapiens, UniProt Q9Y5N1); test: competitive inhibition SPA binding assay, H3R, (3H)-n-alpha-methylhistamine; details: selectivity panel
T2 construct: expressed in transfected cells
T2 sequence (Q9Y5N1 whole entry): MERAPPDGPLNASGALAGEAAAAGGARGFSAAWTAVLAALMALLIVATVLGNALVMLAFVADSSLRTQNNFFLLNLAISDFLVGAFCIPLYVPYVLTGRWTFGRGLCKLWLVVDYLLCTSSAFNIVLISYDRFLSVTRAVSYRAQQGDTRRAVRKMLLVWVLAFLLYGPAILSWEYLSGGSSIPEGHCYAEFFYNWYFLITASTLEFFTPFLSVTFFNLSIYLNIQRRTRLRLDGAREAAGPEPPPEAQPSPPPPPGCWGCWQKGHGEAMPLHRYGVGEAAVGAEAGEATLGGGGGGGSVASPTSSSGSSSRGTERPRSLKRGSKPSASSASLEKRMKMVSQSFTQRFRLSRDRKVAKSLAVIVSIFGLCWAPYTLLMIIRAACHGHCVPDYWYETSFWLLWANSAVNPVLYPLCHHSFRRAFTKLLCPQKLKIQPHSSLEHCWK
From the text: The inventive compounds can readily be evaluated by using a competitive inhibition Scintillation Proximity Assay (SPA) based on a H3R binding assay using [3H] α methylhistamine as ligand. Stable cell lines, including but not limited to HEK can be transfected with cDNA coding for H3R to prepare membranes used for the binding assay. The technique is illustrated below (Preparation of Histamine Receptor Subtype Membranes) for the histamine receptor subtypes.
cDNA for the human histamine 3 receptor was cloned and expressed as described in (A. Preparation H1R membranes), above. Transfected cells were selected using G418 ([…]), grown, and tested for histamine binding by the SPA described above. For total binding, cells were assayed in a SPA reaction described above containing 50 mM Tris-HCL (assay buffer), pH 7.6, 1 mg wheat germ agglutinin SPA beads (Amersham Pharmacia Biotech, #RPNQ0001), and 1 nM (3H)-n-alpha-methylhistamine (NEN, NET1027) (total volume per well=200 μl). Thioperimide was added to determine non-specific binding. Several clones were selected as positive for binding, and a single clone (H3R8) was used to prepare membranes for binding studies described above. Five micrograms of protein was used per well in the SPA receptor-binding assay.
To investigate the selectivity of the antagonists for the histamine receptors, a competitive binding assay described above was performed. […]

[3] = target: T3, H4R (human GPRv53 receptor) (Homo sapiens, UniProt Q9H3N8); test: competitive binding assay, GPRv53 (H4R), (3H) Histamine
T3 construct: expressed in transfected cells; host or cells: HEK293 GPRv53 50 cells (whole-cell homogenate/lysate)
T3 sequence (Q9H3N8 whole entry): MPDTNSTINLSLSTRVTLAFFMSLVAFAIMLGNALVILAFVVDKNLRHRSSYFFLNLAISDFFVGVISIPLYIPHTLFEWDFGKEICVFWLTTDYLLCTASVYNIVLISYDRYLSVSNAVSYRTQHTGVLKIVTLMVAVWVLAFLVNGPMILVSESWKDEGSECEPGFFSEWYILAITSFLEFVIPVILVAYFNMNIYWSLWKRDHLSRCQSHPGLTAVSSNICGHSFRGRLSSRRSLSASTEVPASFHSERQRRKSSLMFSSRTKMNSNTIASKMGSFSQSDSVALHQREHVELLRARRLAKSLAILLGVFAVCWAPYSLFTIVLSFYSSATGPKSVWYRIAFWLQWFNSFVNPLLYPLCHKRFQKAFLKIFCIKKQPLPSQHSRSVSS
Description: cDNA for the human GPRv53 receptor was cloned and expressed as described in (A. Preparation H1R membranes), above. Transfected cells were selected, tested for histamine binding, and selected. HEK293 GPRv53 50 cells were grown to confluency in DMEM/F12 (Gibco) supplemented with 5% FBS and 500 ug/ml G418 and washed with Delbecco's PBS (Gibco) and harvested by scraping. Whole cells were homogenized with a Polytron tissuemizer in binding buffer, 50 mM Tris pH 7.5. Cell lysates, 50 ug, were incubated in 96 well dishes with 3 nM (3H) Histamine and compounds in binding buffer for 2 hours at room temperature. Lysates were filtered through glass fiber filters (Perkin Elmer) with a Tomtec cell harvester. Filters were counted with melt-on scintillator sheets (Perkin Elmer) in a Wallac Trilux 1450 Microbeta Scintillation counter for 5 minutes.
(§1) To investigate the selectivity of the antagonists for the histamine receptors, a competitive binding assay described above was performed. […] Until the present invention, most known H3R antagonists also bound H4R.

[4] = target: T4, H1R (human histamine 1 receptor) (Homo sapiens, UniProt P35367); test: competitive SPA binding assay, H1R, 3H-pyrilamine; details: selectivity panel
T4 construct: expressed in transfected cells
T4 sequence (P35367 whole entry): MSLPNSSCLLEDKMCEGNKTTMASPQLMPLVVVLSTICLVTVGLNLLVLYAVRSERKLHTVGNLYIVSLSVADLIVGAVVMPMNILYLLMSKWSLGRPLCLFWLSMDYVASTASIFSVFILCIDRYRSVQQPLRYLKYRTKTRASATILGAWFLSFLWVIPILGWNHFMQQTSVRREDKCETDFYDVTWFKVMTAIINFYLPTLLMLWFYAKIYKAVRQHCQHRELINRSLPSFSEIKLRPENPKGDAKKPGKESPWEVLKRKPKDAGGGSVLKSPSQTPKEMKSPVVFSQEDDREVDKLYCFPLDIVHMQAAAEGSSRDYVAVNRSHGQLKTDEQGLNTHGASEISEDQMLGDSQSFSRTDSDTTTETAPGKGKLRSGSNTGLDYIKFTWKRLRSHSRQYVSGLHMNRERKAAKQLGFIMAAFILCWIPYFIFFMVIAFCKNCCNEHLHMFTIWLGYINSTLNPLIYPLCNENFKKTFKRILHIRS
Description: cDNA for the human histamine 1 receptor (H1R) was cloned into a mammalian expression vector containing the CMV promoter (pcDNA3.1(+), Invitogen) and transfected into HEK293 cells using the FuGENE Tranfection Reagent (Roche Diagnostics Corporation). Transfected cells were selected using G418 (500 μ/ml). Colonies that survived selection were grown and tested for histamine binding to cells grown in 96-well dishes using a scintillation proximity assay (SPA) based radioligand binding assay. Briefly, cells, representing individual selected clones, were grown as confluent monolayers in 96-well dishes (Costar Clear Bottom Plates, #3632) by seeding wells with 25,000 cells and growing for 48 hours (37° C., 5% CO2). Growth media was removed and wells were rinsed two times with PBS (minus Ca^2+ or Mg^2+). For total binding, cells were assayed in a SPA reaction containing 50 mM Tris-HCL (assay buffer), pH 7.6, 1 mg wheat germ agglutinin SPA beads (Amersham Pharmacia Biotech, #RPNQ0001), and 0.8 nM ^3H-pyrilamine (Net-594, NEN) (total volume per well ˜200 μl). Astemizole (10 μM, Sigma #A6424) was added to appropriate wells to determine non-specific binding. Plates were covered with FasCal and incubated at room temperature for 120 minutes. […] Plates were counted in a Wallac Trilux 1450 Microbeta scintillation counter. […]

[5] = target: T5, H2 (human histamine 2 receptor) (Homo sapiens, UniProt P25021); test: competitive SPA binding assay, H2R, 3H-tiotidine; details: selectivity panel
T5 construct: expressed in transfected cells
T5 sequence (P25021 whole entry): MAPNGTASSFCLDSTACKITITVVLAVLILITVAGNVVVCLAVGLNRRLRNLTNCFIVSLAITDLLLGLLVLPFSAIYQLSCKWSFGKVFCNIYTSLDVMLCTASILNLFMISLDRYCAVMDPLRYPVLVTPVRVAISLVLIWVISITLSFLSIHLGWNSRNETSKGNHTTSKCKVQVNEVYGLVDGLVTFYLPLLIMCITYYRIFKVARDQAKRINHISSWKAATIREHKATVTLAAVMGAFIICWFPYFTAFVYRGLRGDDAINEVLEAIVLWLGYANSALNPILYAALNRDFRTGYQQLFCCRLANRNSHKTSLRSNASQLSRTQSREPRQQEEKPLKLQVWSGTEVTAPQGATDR
Description: cDNA for the human histamine 2 receptor was cloned, expressed and transfected into HEK 293 cells as described above. Histamine binding to cells was assayed by SPA described above. For total binding, cells were assayed in a SPA reaction containing 50 mM Tris-HCl (assay buffer), pH 7.6, 1 mg wheat germ agglutinin SPA beads (Amersham Pharmacia Biotech, #RPNQ0001), and 6.2 nM ^3H-tiotidine (Net-688, NEN) (total volume per well=200 μl). Cimetidine (10 μM, Sigma #C4522) was added to appropriate wells to determine non-specific binding.
Several clones were selected as positive for binding, and a single clone (H2R10) was used to prepare membranes for binding studies. Five micrograms of protein was used per well in the SPA receptor-binding assay.
as §1

T1 sequence (Q9Y5N1 whole entry): as the sequence (Q9Y5N1 whole entry) above

Row | Structure (SMILES) | Ki [1] [nM] | Ki [2] [nM] | Ki ([3]; selectivity panel) [nM] | inhibition of binding to H4R compared to H3R ([3]; statement in words) | Ki [4] [nM] | Ki [5] [nM]
1 | O=C(c1ccc2c(c1)CCC(N1CCCC1)C2)N1CCC[C@H]1CN1CCCC1 (mixture of isomers) [Example 3, (2-Pyrrolidin-1-ylmethyl-pyrrolidin-1-yl)-(6-pyrrolidin-1-yl-5,6,7,8-tetrahydro-naphthalen-2-yl)-methanone] | 1.5 | – | – | – | – | –
2 | O=C(c1ccc2c(c1)CCC(N1CCOCC1)C2)N1CCC[C@H]1CN1CCCC1 (mixture of isomers) [Example 6, (6-Morpholin-4-yl-5,6,7,8-tetrahydro-naphthalen-2-yl)-(2-pyrrolidin-1-ylmethyl-pyrrolidin-1-yl)-methanone] | 7.8 | – | – | – | – | –
3 | O=C(c1ccc2c(c1)CCCC2)N1CCC[C@H]1CN1CCCC1 [Example 15, (S)-(2-Pyrrolidin-1-ylmethyl-pyrrolidin-1-yl)-(5,6,7,8-tetrahydro-naphthalen-2-yl)-methanone] | – | 1.8 | ≥ 20000 | did not inhibit binding H4R | ≥ 20000 | ≥ 17800
